Data taken from patent US20040198821A1, “Reduction of hair growth” (priority 2002, published 2004).
Values belong to the compound of their own block, whether it stands above or below them.

How the values were obtained:
[1] = system: hamster flank organ hair growth (hair mass); assay: Golden Syrian hamster assay (hair mass assay); type: in vivo; conditions: for % Inhibition of hamster hair mass / Treated (mg) hair mass: three weeks
Source text: Golden Syrian Hamster Assay
Male intact Golden Syrian hamsters are considered acceptable models for human beard hair growth in that they display oval shaped flank organs, one on each side, each about 8 mm. in major diameter. These organs produce fine light colored hair typical of the animal pelage found on the body. In response to androgens the flank organs produce dark coarse hair similar to male human beard hair. To evaluate the effectiveness of a composition in reducing hair growth, the flank organs of each of a group of hamsters are depilated by applying a thioglycolate based chemical depilatory (Surgex) and/or shaved. To one organ of each animal 10 μl. of vehicle alone once a day is applied, while to the other organ of each animal an equal amount of vehicle containing the compound under evaluation is applied. After three weeks of topical applications (one application per day for five days a week), the flank organs are shaved and the amount of recovered hair (hair mass) from each is weighed. Percent-reduction of hair growth is calculated by subtracting the hair mass (mg) value of the test compound treated side from the hair mass value of the vehicle treated side; the delta value obtained is then divided by the hair mass value of the vehicle treated side, and the resultant number is multiplied by 100.
The above-described assay will be referred to herein as the “Golden Syrian hamster” assay or “hair mass” assay. Preferred compositions provide a reduction in hair growth of at least about 15% and more preferably at least about 35%, when tested in the Golden Syrian hamster assay.

human hair follicles = assay: Human hair follicle growth assay; type: cell-based
Source text: Human Hair Follicle Growth Assay
Tissue source—Human skin was obtained from a plastic surgeon as a by-product of face-lift procedures. Immediately after removal, the skin was placed in Williams E medium containing antibiotics and refrigerated. The Williams E medium is a commercially obtained medium which has been formulated with essential nutrients for maintaining viability of tissues or cells such as of hair follicle in an in-vitro environment.
Hair Follicle Isolation and Culture—Human hair follicles in growth phase (anagen) were isolated from face-lift tissue under a dissecting scope using a scalpel and watchmakers forceps. The skin was sliced into thin strips exposing 2-3 rows of follicles that could readily be dissected. Follicles were placed into 0.5 ml Williams E medium supplemented with 2 mM L-glutamine, 10 μg/ml insulin, 100 ng/ml hydrocortisone, 100 units penicillin, 0.1 mg/ml streptomycin and 0.25 μg/ml amphotericin B. The follicles were incubated in 24 well plates (1 follicle/well) at 37° C. in an atmosphere of 5% CO2 and 95% air. Hair follicles were video recorded in the 24-well plates under the dissecting scope under a power of 10×. Typically, hair follicle lengths were measured on day 0 (day follicles were placed in culture) and again on day 7. When testing compounds, the compound was included in the culture medium from time 0 and remained in the medium throughout the course of the experiment. The length of hair follicles was assessed using an image analysis software system (Jasc Image Robot).

[2] = system: Carnitine palmitoyltransferase I (CPT I); assay: Assay of carnitine palmitoyl transferase-I (CPT-I), Method-I; type: biochemical; conditions: inhibitor 5 mM, hamster flank organ hair follicle fraction
Description: Assay of Carnitine Palmitoyl Transferase-I (CPT-I)
Two different enzyme assays were used to quantify the activity of CPT-I in hair follicles:
Hair follicle rich fraction from hamster flank organs are homogenized in Buffer A (200 mM mannitol, 10 mM sucrose, 5 mM MOPS pH 7.4). The homogenate is centrifuged at 2000 rpm for 10 minutes. The supernatant is removed and centrifuged at 7000 rpm for 30 minutes. The pellet is resuspended in Buffer B (20 mM Tris-HCl, pH 7.4), 400 mM sucrose, 80 mM KCl, 2 mM EDTA, 2.6 mg/ml fatty acid free BSA). 30 μl of the resuspended pellet is added to 35 μl of DMSO or one of the inhibitors diluted in DMSO so that the final concentration is 5 mM. After a 15 min preincubation, the following are added; 35 μl of 1.7 mM palmitoyl Co-A (34% water and 66% Buffer B), 10 μl of 5 mM L-carnitine (in buffer B with 0.5 μCi ^3H-carnitine). The reaction is then placed in a 37° C. water bath for 30 minutes. At the end of 30 minutes the reaction is stopped by the addition of 150 μl cold 1N HCl. This is followed by the addition of 250μl water to each sample. Butanol (500 μl) is then added to each sample and the samples are centrifuged for 2 minutes at 10,000×g. 300 μl of the butanol layer is transferred to a new centrifuge tube and 250 μl of water is added. 200 μl of the organic phase is added to a scintillation vial containing 12 ml of scintillation cocktail. The radioactivity is determined using a scintillation counter.

[3] = system: Carnitine palmitoyltransferase I (CPT I); assay: Assay of carnitine palmitoyl transferase-I (CPT-I), Method II (isolated mitochondrial fraction); type: biochemical, hamster; conditions: inhibitor 1 mM
Description: The enzyme activity of carnitine palmitoyl transferase-I (CPT-I) was also determined in the isolated mitochondrial fraction. Isolation of mitochondria from the hair follicle rich fraction of flank organs was accomplished by conventional differential centriftigation in 0.25 M sucrose, 10 mM Tris-HCl, pH 7.4 and 1 mM EDTA after tissues were homogenized by polytron homogenizer and Dounce tissue grinder. The pellet obtained at 7000 g was washed two times and finally suspended at 40-80 mg/ml. Carnitine palmitoyltransferase was measured as the rate of conversion of palmitoyl-CoA and [^3H]CH3-L-carnitine into palmitoyl-[^3H]CH3-1-carnitine. The incubation mixture initially contained 12.5 μmol of Tris-HCl (pH 7.2), 15 μmol of KCl, 3.1 μmol of KCN, 6.2 μmol of glutathione, 15 nmol of CoA, […], 2 μmol of ATP (pH 6.8) in volume of 0.425 ml. To this mixture 50 μl of mitochondria were added, followed by preincubation at 37° C. for 10 minutes in the presence or absence of the enzyme inhibitor methyl palmoxirate (dissolved in DMSO). After preincubation, the enzyme reaction was initiated by the addition of 25 μl of 2 mM palmitoyl-CoA and 25 μl of 4 mM [^3H]CH3-L-carnitine. The reaction was stopped after 30 minutes with 1 ml 1N HCl and palmitoyl-[^3H]CH3-L-carnitine was extracted into n-butanol. The radioactivity was determined using scintillation spectrometry.

3-ketoacyl-CoA thiolase = assay: Assay of 3-ketoacyl-CoA thiolase; type: biochemical, hamster; conditions: inhibitor 0.5 mM, mitochondria preincubated 5 min
Description: Assay of 3-Ketoacyl-CoA Thiolase:
Aliquots of the mitochondrial suspension (50 μl) were rapidly frozen in dry ice and stored at −80° C. until enzyme activities were assayed as described below. To insure the complete disruption of mitochondria, Triton X-100 (0.06%) was added to all assay mixtures. The activity of thiolase was determined by spectrophotometrically following the disappearance of the Mg^2+-enolate complex at 303 nm. The enzyme assay was performed at 25° C. The reaction mixture contained 0.1 M Tris-HCl (pH 8.2), 25 mM MgCl2, 30 mM KCl, 0.06% Triton X-100, bovine serum albumin (0.13 mg/ml), 70 μM CoA and 33 μM acetoacetyl-CoA. Molar extinction coefficient of […] was used to calculate the rates determined with acetoacetyl-CoA.

[4] = 1 mM in culture medium, day 0 to day 7

Compound: CCCCCCCCC1=C(CCCCCCCC(=O)OC)C1 [methyl sterculate]
reduction of hair growth in vivo (in words) ([1]; text summary of Table VIII): can reduce hair growth both in vivo and in vitro
% Inhibition of hamster hair mass ([1]; topical dose 2.5%, vehicle E): 45.1 ± 6.8%
Treated (mg) hair mass ([1]; topical dose 2.5%, vehicle E): 1.4 ± 0.2 mg
% Inhibition of human hair follicle growth (human hair follicles; [4]): 59.3 ± 0.2%
Hair follicle length increase (mm) (human hair follicles; [4]): 0.59 ± 0.29 mm
reduction of hair growth in vitro (in words) (human hair follicles; text summary of Table IX): can reduce hair growth both in vivo and in vitro

% inhibition of CPT I [2]: 22%
pmol product /mg protein (CPT I activity) [2]: 0.59 pmol product /mg protein
Compound: CC(C)(COP(=O)(O)OP(=O)(O)OC[C@H]1O[C@@H](n2cnc3c(N)ncnc32)[C@H](O)[C@@H]1OP(=O)(O)O)[C@@H](O)C(=O)NCCC(=O)NCCSC(=O)CC(=O)O [malonyl CoA]

% inhibition of CPT I [2]: 86%
pmol product /mg protein (CPT I activity) [2]: 0.10 pmol product /mg protein
Compound: C1CCC(C(CC2CCCCN2)C2CCCCC2)CC1 (centres unmarked) [perhexiline]
% Inhibition of hamster hair mass ([1]; topical dose 2.5%, vehicle B): 23 ± 25%
Treated (mg) hair mass ([1]; topical dose 2.5%, vehicle B): 2.28 ± 0.77 mg

% inhibition of CPT I [2]: 100%
pmol product /mg protein (CPT I activity) [2]: 0.00 pmol product /mg protein
Compound: COc1ccc(Cl)cc1C(=O)NCCc1ccc(S(=O)(=O)NC(=O)NC2CCCCC2)cc1 [glynbenclamide]
% Inhibition of hamster hair mass ([1]; topical dose 10.0%, vehicle D): 32 ± 8%
Treated (mg) hair mass ([1]; topical dose 10.0%, vehicle D): 1.40 ± 0.32 mg

Compound: CCCCCCCCCC(=O)OC(CC(=O)O)C[N+](C)(C)C.[Cl-] (racemic) [DL-decanoylcarnitine chloride]
% Inhibition of hamster hair mass ([1]; topical dose 10.0%, vehicle B): 58 ± 5%
Treated (mg) hair mass ([1]; topical dose 10.0%, vehicle B): 0.94 ± 0.12 mg

Compound: CCCCCCCCCCCCCCCC(=O)OC(CC(=O)[O-])C[N+](C)(C)C (stereo not drawn) [palmitoyl DL carnitine]
% Inhibition of hamster hair mass ([1]; topical dose 10.0%, vehicle A): 73 ± 15%
Treated (mg) hair mass ([1]; topical dose 10.0%, vehicle A): 0.29 ± 0.1 mg

% inhibition of CPT I [2]: 90%
pmol product /mg protein (CPT I activity) [2]: 0.07 pmol product /mg protein
Compound: CCCCNC(=O)NS(=O)(=O)c1ccc(C)cc1 [tolbutamide]

Compound: CCCCc1oc2ccccc2c1C(=O)c1cc(I)c(OCCN(CC)CC)c(I)c1 [amiodarone]
% Inhibition of hamster hair mass ([1]; topical dose 7.5%, vehicle A): 44 ± 28%
Treated (mg) hair mass ([1]; topical dose 7.5%, vehicle A): 1.62 ± 0.9 mg

Compound: C=CCCC(=O)O [4-pentenoic acid]
% Inhibition of hamster hair mass ([1]; topical dose 10.0%, vehicle A): 46 ± 8%
Treated (mg) hair mass ([1]; topical dose 10.0%, vehicle A): 1.10 ± 0.12 mg

% inhibition of CPT I [3]: 44%
pmol product /mg protein (CPT I activity) [3]: 0.64 pmol product/mg protein
Compound: N[C@H](C(=O)O)c1ccc(O)cc1 [oxfenicine]

% inhibition of 3-ketoacyl-CoA thiolase (3-ketoacyl-CoA thiolase): 85.2%
nmol product/mg protein (3-ketoacyl-CoA thiolase activity) (3-ketoacyl-CoA thiolase): 0.128 nmol product/mg protein
Compound: O=C(O)/C=C/CBr [4-bromocrotonic acid]
% Inhibition of hamster hair mass ([1]; topical dose 3.0%, vehicle B): 37 ± 14%
Treated (mg) hair mass ([1]; topical dose 3.0%, vehicle B): 1.25 ± 0.37 mg
Hair follicle length increase (mm) (human hair follicles; 0.03 mM in culture medium, day 0 to day 7): 0.06 ± 0.06 mm
inhibition at 30 µM (human hair follicles; Homo sapiens, 0.03 mM in culture medium, day 0 to day 7): 95 ± 5%

Compound: CCCCCCCCCCCCCCC(Br)C(=O)O (centres unmarked) [2-bromopalmitic acid]
% inhibition of CPT I [2]: 91%
pmol product /mg protein (CPT I activity) [2]: 0.07 pmol product /mg protein

Compound: C/C=C/C/C=C/CCC(=O)[C@H]1O[C@H]1C(N)=O [cerulenin]
Hair follicle length increase (mm) (human hair follicles; 10 μM in culture medium, day 0 to day 7): 0.06 ± 0.05 mm
inhibition at 10 µM (human hair follicles; Homo sapiens, 10 μM in culture medium, day 0 to day 7): 93.7 ± 5.6%
inhibition of human hair follicle growth in vitro (in words) (human hair follicles; text summary of Table VII): can inhibit human hair follicle growth in vitro with marked efficacy

Compound: CCCC(CCC)C(=O)O [2-propylpentanoic acid]
% Inhibition of hamster hair mass ([1]; topical dose 20.0%, vehicle A): 67 ± 3%
Treated (mg) hair mass ([1]; topical dose 20.0%, vehicle A): 2.68 ± 0.20 mg

Compound: CC(C)(C)c1ccc(C(=O)O)cc1 [4-tert-butylbenzoic acid]
% Inhibition of hamster hair mass ([1]; topical dose 10.0%, vehicle C): 46 ± 8%
Treated (mg) hair mass ([1]; topical dose 10.0%, vehicle C): 1.10 ± 0.12 mg

Compound: CCCCCCCCCCCCCCC1(C(=O)OC)CO1 (centres unmarked) [methyl palmoxirate, methyl-2-tetradecylglycidate]
% Inhibition of hamster hair mass ([1]; topical dose 2.0%, vehicle B): 66 ± 4%
Treated (mg) hair mass ([1]; topical dose 2.0%, vehicle B): 0.56 ± 0.12 mg
Hair follicle length increase (mm) (human hair follicles; 0.1 mM in culture medium, day 0 to day 7): 0.54 ± 0.3 mm
inhibition at 100 µM (human hair follicles; Homo sapiens, 0.1 mM in culture medium, day 0 to day 7): 57 ± 24%
